In US20260284143A1, “METHOD OF USING BIOACTIVE PEPTIDE FRACTION ISOLATED FROM CANARY SEED” (Purdue Research Foundation, priority 2023, published 2026):

Experiments:
[1] = molecular target: T1, pancreatic lipase type-VI (Sus scrofa, UniProt P00591); experiment: Pancreatic lipase inhibition and jump dilution (residence time); type: biochemical
T1 sequence (P00591 1-450): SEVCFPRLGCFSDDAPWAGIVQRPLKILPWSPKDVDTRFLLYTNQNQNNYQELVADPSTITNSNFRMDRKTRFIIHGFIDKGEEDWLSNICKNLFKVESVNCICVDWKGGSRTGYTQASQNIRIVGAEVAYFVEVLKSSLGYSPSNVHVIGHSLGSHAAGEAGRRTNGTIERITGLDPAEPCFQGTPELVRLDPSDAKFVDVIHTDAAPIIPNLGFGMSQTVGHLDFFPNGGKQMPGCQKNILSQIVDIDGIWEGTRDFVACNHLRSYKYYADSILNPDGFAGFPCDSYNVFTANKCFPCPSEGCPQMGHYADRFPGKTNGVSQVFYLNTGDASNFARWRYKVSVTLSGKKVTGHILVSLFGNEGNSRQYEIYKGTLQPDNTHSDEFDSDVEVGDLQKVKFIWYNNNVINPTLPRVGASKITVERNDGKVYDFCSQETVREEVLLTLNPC
Method: Pancreatic lipase inhibition was measured according to the procedures described in our previous study. Briefly, samples, substrate, and pancreatic lipase were dis-solved in McIlvaine buffer (0.1 M Citrate-Na2HPO4, pH 7.4). Then, 50 μL of substrate 4-methylumbelliferyl oleate (1 mM) was pre-incubated with 25 μL of peptide sample for 10 min in a black 96-well microplate. Then, 25 μL of pancreatic lipase type-VI (200 U/mL) were pipetted, and the reaction was carried out for one hour. The production of 4-methylumbelliferone was measured fluorometrically using a Fluoroskan Ascent FL Microplate Fluorometer and Luminometer, ThermoFisher Scientific (Waltham, MA, USA) using an excitation wavelength of 355 nm and emission wavelength of 460 nm. The positive control (no inhibitor) used the buffer instead of the sample, and buffer was used instead of pancreatic lipase solution for negative control (no pancreatic lipase activity). Finally, a jump dilution experiment was carried out, as previously reported by Kumar and Lowery. Briefly, enzyme-inhibitor complexes were formed by pre-incubating the substrate, pancreatic lipase (6000 U/mL), and inhibitors (10×IC50) for three hours. […] Finally, the residence time was calculated by measuring tau determined as the reciprocal of koff after fitting the enzyme progress curves to Equation (1).

C57BL/6J mice [2] = experiment: Organ and epididymal fat weight; type: in vivo; conditions: orlistat 40 mg/kg/day, 8 weeks, Western diet
Method: The total body weight gain (g/animal), daily feed intake (g/animal/day), and water consumption was monitored weekly throughout the study. The fecal collection was done per cage, separating fecal matter from bedding on a weekly basis and then stored at −80±3° C. until analysis. After the eight weeks of the study, animals were sacrificed by CO2 asphyxiation. Immediately after, blood was collected by cardiac puncture.

C57BL/6J mice [3] = experiment: Fasting serum levels of metabolic hormones (ELISA); type: in vivo; conditions: orlistat 40 mg/kg/day, 8 weeks
Method: Mouse serum was analyzed to quantify total serum ghrelin using a mouse enzyme-linked immunosorbent assay (ELISA) ghrelin kit (EIAM-GHR-1) obtained from Raybiotech (Norcross, GA, USA), serum leptin by mouse leptin Duoset ELISA kit (DY49805) obtained from R&D Systems (Minneapolis, MN, USA), serum adiponectin and insulin by commercial mouse ELISA kits (KMP0041 and EMINS) obtained from Thermo Fisher Scientific (Waltham, MA, USA). All assays were carried out following the manufacturer's instructions. Finally, the absorbances were quantified at 450 nm and turbidity corrections at 590 nm using Multiskan™ FC Microplate Photometer (Waltham, MA, USA).

C57BL/6J mice [4] = experiment: Serum biochemical analysis (TG, HDL, LDL/VLDL, total cholesterol); type: in vivo; conditions: orlistat 40 mg/kg/day, 8 weeks, fasting serum
Method: Total serum high-density lipoprotein (HDL), low-density lipoprotein (LDL)/very low-density lipoprotein (VLDL), and total cholesterol levels were quantified with HDL, and LDL/VLDL Colorimetric/Fluorometric assay Kit (LSK314100) obtained from Lifespan Bioscience (Seattle, […], USA). The assays were carried out following the manufacturer's instructions, and the absorbance was measured using Multiskan™ FC Microplate Photometer (Waltham, MA, USA). In addition, serum triglyceride (TG) levels were measured using a triglyceride colorimetric kit (LSK302200) purchased from Lifespan Bioscience (Seattle, DC, USA).

pancreatic lipase = conditions: peptides identified from fractionated canary seed proteins; cited from earlier work

In the case of `CCCCCCCCCCC[C@@H](C[C@@H]1OC(=O)[C@H]1CCCCCC)OC(=O)[C@H](CC(C)C)NC=O` [orlistat], the “reversibility of pancreatic lipase inhibition” value ([1]; 30-fold jump dilution) is reported as “slow reversibility”, the “inhibition of pancreatic lipase (PL) in pre-formed complexes” value ([1]; inhibitor 10×IC50, monitored for three hours) is reported as “Complete inhibition” and the Kidney weight (C57BL/6J mice [2]) is reported as 402.08 ± 7.43 a mg. The serum ghrelin concentration (C57BL/6J mice [3]) was “increased”, the “serum TG concentration vs WD” value (C57BL/6J mice [4]) was “effective in lowering” and the “serum total cholesterol vs WD” value (C57BL/6J mice [4]) was “no difference”.
For LADR, the “inhibitory activity towards pancreatic lipase” value (pancreatic lipase) is listed as “high inhibitory activity”.
For LSPR, the “inhibitory activity towards pancreatic lipase” value (pancreatic lipase) is listed as “high inhibitory activity”.
In the case of TVGPR, the “inhibitory activity towards pancreatic lipase” value (pancreatic lipase) is given as “high inhibitory activity”.
For VPPR, the “inhibitory activity towards pancreatic lipase” value (pancreatic lipase) is listed as “high inhibitory activity”.
